The record followed here is patent US6821967B2, “Substituted piperazine derivatives, the preparation thereof and their use as medicaments” (Boehringer Ingelheim Pharma KG, priority 1999, dated 2004).

Molecules are shown by their SMILES.

The term melting point denotes the temperature of the solid-liquid transition. For `C[C@@H]1CN(c2nc3ccccc3n2C)C[C@H](C)N1CCCCC1(C(=O)NCC(F)(F)F)c2ccccc2-c2ccccc21` [Example 43, 9-{4-[cis-2,6-dimethyl-4-(1-methyl-1H-benzimidazol-2-yl)-piperazin-1-yl]-butyl}-9H-fluorene-9-carboxylic acid-(2,2,2-trifluoro-ethyl)-amide], the melting point was found to be 77 °C. Consider `O=C(NCC(F)(F)F)C1(CCCCN2CCN(c3nc4ccccc4n3Cc3ccccc3)CC2)c2ccccc2-c2ccccc21` [Example 13, 9-{4-[4-(1-benzyl-1H-benzimidazol-2-yl)-piperazin-1-yl]-butyl}-9H-fluorene-9-carboxylic acid-(2,2,2-trifluoro-ethyl)-amide], for which the melting point is 60 °C. Next, `O=C(NCC(F)(F)F)C1(CCCCN2CCN(c3ccc4cccc(Cl)c4n3)CC2)c2ccccc2Oc2ccccc21` [Example 106, 9-{4-[4-(8-chloro-quinolin-2-yl)-piperazin-1-yl]-butyl}-9H-xanthene-9-carboxylic acid-(2,2,2-trifluoro-ethyl)-amide]: 68 °C; `COc1cccc2c1nc(N1CCN(CCCCC3(C(=O)NCC(F)(F)F)c4ccccc4-c4ccccc43)CC1)n2C` [Example 20, 9-{4-[4-(4-methoxy-1-methyl-1H-benzimidazol-2-yl)-piperazin-1-yl]-butyl}-9H-fluorene-9-carboxylic acid-(2,2,2-trifluoro-ethyl)-amide]: 146 °C; `O=C(NCC(F)(F)F)C1(CCCCN2CCN(c3nc4ccccc4o3)CC2)c2ccccc2Oc2ccccc21` [Example 101, 9-[4-(4-benzoxazol-2-yl-piperazin-1-yl)-butyl]-9H-xanthene-9-carboxylic acid-(2,2,2-trifluoro-ethyl)-amide]: 196 to 197 °C. In turn, `COc1ccc(CNC(=O)C2(CCCCN3CCN(c4ccc5ccccc5n4)CC3)c3ccccc3-c3ccccc32)c(OC)c1` [Example 82, 9-[4-(4-quinolin-2-yl-piperazin-1-yl)-butyl]-9H-fluorene-9-carboxylic acid-2,4-dimethoxy-benzylamide] showed a melting point of 44 °C. Next, `O=C(NCC(F)(F)F)C1(CCCCN2CCN(c3nc4ccccc4o3)CC2)c2ccccc2-c2ccccc21` [Example 2, 9-[4-(4-(benzoxazol-2-yl)-piperazin-1-yl)-butyl]-9H-fluorene-9-carboxylic acid-(2,2,2-trifluoro-ethyl)-amide]: 128 °C; `O=C(NCc1ccc(F)cc1)C1(CCCCN2CCN(c3cnc4ccccc4n3)CC2)c2ccccc2-c2ccccc21` [Example 57, 9-[4-(4-quinoxalin-2-yl-piperazin-1-yl)-butyl]-9H-fluorene-9-carboxylic acid-4-fluoro-benzylamide]: 160 °C; `O=C(NCC(F)(F)F)C1(CCCCN2CCN(c3ccc4cccc(Cl)c4n3)CC2)c2ccccc2-c2ccccc21` [Example 29, 9-{4-[4-(8-chloro-quinolin-2-yl)-piperazin-1-yl]-butyl}-9H-fluorene-9-carboxylic acid-(2,2,2-trifluoro-ethyl)-amide]: 121 °C. Next, `C[C@@H]1CN(c2ccc3ccccc3n2)C[C@H](C)N1CCCCC1(C(=O)NCC(F)(F)F)c2ccccc2Oc2ccccc21` [Example 111, 9-[4-(cis-2,6-dimethyl-4-quinolin-2-yl-piperazin-1-yl)-butyl]-9H-xanthene-9-carboxylic acid-(2,2,2-trifluoro-ethyl)-amide]: 177 °C; `C[C@@H]1CN(c2ccc3c(Cl)cccc3n2)C[C@H](C)N1CCCCC1(C(=O)NCc2ccc(F)cc2)c2ccccc2-c2ccccc21` [Example 66, 9-{4-[4-(5-chloro-quinolin-2-yl)-cis-2,6-dimethyl-piperazin-1-yl]-butyl}-9H-fluorene-9-carboxylic acid-4-fluoro-benzylamide]: 136 to 137 °C. To `O=C(NCc1cccs1)C1(CCCCN2CCN(c3ccc4ccccc4n3)CC2)c2ccccc2-c2ccccc21` [Example 90, 9-[4-(4-quinolin-2-yl-piperazin-1-yl)-butyl]-9H-fluorene-9-carboxylic acid-(thiophen-2-ylmethyl)-amide] belongs 45 to 50 °C; to `C[C@@H]1CN(c2ncc3ccccc3n2)C[C@H](C)N1CCCCC1(C(=O)NCC(F)(F)F)c2ccccc2-c2ccccc21` [Example 47, 9-[4-(cis-2,6-dimethyl-4-quinazolin-2-yl-piperazin-1-yl)-butyl]-9H-fluorene-9-carboxylic acid-(2,2,2-trifluoro-ethyl)-amide], 174 °C. In turn, `O=C(NCc1ccc(F)cc1)C1(CCCCN2CCN(c3ccc4ccccc4n3)CC2)c2ccccc2-c2ccccc21` [Example 53, 9-[4-(4-quinolin-2-yl-piperazin-1-yl)-butyl]-9H-fluorene-9-carboxylic acid-4-fluoro-benzylamide] showed a melting point of 58 °C. On to `C[C@H]1CN(c2ccc3ccccc3n2)CCN1CCCCC1(C(=O)NCC(F)(F)F)c2ccccc2Oc2ccccc21` [Example 109, 9-{4-[(S)-2-methyl-4-quinolin-2-yl-piperazin-1-yl]-butyl}-9H-xanthene-9-carboxylic acid-(2,2,2-trifluoro-ethyl)-amide], for which the melting point lay in the range of 52 to 53 °C. `CC1CN(CCCCC2(C(=O)NCC(F)(F)F)c3ccccc3-c3ccccc32)CCN1c1ccc2ccccc2n1` (stereo not shown) [Example 40, 9-{4-[3-methyl-4-quinolin-2-yl-piperazin-1-yl]-butyl}-9H-fluorene-9-carboxylic acid-(2,2,2-trifluoro-ethyl)-amide] registered a melting point of 50 °C. To `Cn1c(N2CCN(CCCCC3(C(=O)NCc4ccc(F)cc4)c4ccccc4-c4ccccc43)CC2)nc2ccc(F)cc21` [Example 62, 9-{4-[4-(6-fluoro-1-methyl-1H-benzimidazol-2-yl)-piperazin-1-yl]-butyl}-9H-fluorene-9-carboxylic acid-4-fluoro-benzylamide] belongs 43 °C; to `O=C(NCC(F)(F)F)C1(CCCCN2CCN(c3ccc4c(Cl)cccc4n3)CC2)c2ccccc2Oc2ccccc21` [Example 104, 9-{4-[4-(5-chloro-quinolin-2-yl)-piperazin-1-yl]-butyl}-9H-xanthene-9-carboxylic acid-(2,2,2-trifluoro-ethyl)-amide], 160 °C. Next, `C[C@@H]1CN(c2ccc3ccccc3n2)C[C@H](C)N1CCCCC1(C(=O)NCC(F)(F)F)c2ccccc2-c2ccccc21` [Example 42, 9-[4-(cis-2,6-dimethyl-4-quinolin-2-yl-piperazin-1-yl)-butyl]-9H-fluorene-9-carboxylic acid-(2,2,2-trifluoro-ethyl)-amide]: 169 °C; `CCCCNC(=O)C1(CCCCN2CCN(c3ccc4ccccc4n3)CC2)c2ccccc2Oc2ccccc21` [Example 118, 9-[4-(4-quinolin-2-yl-piperazin-1-yl)-butyl]-9H-xanthene-9-carboxylic acid-Butylamide]: 45 to 53 °C; `Cn1c(N2CCN(CCCCC3(C(=O)NCC(F)(F)F)c4ccccc4-c4ccccc43)CC2)nc2ccc(F)cc21` [Example 17, 9-{4-[4-(6-fluoro-1-methyl-1H-benzimidazol-2-yl)-piperazin-1-yl]-butyl}-9H-fluorene-9-carboxylic acid-(2,2,2-trifluoro-ethyl)-amide]: 54 °C.

In the case of `O=C(NCC(F)(F)F)C1(CCCCN2CCN(c3ccc4cc(Cl)ccc4n3)CC2)c2ccccc2Oc2ccccc21` [Example 105, 9-{4-[4-(6-chloro-quinolin-2-yl)-piperazin-1-yl]-butyl}-9H-xanthene-9-carboxylic acid-(2,2,2-trifluoro-ethyl)-amide], the melting point was determined as 165 °C. Regarding `Cn1c(N2CCN(CCCCC3(C(=O)NCc4ccc(F)cc4)c4ccccc4-c4ccccc43)CC2)nc2ccccc21` [Example 60, 9-{4-[4-(1-methyl-1H-benzimidazol-2-yl)-piperazin-1-yl]-butyl}-9H-fluorene-9-carboxylic acid-4-fluoro-benzylamide], the melting point came out at 55 °C. The compound `O=C(NCC(F)(F)F)C1(CCCCN2CCN(c3nc4ccccc4s3)CC2)c2ccccc2Oc2ccccc21` [Example 100, 9-[4-(4-benzothiazol-2-yl-piperazin-1-yl)-butyl]-9H-xanthene-9-carboxylic acid-(2,2,2-trifluoro-ethyl)-amide] yielded a melting point of 58 to 62 °C. Next, `C[C@@H]1CN(c2nc3ccccc3o2)C[C@H](C)N1CCCCC1(C(=O)NCc2ccc(F)cc2)c2ccccc2-c2ccccc21` [Example 69, 9-[4-(4-benzoxazol-2-yl-cis-2,6-dimethyl-piperazin-1-yl)-butyl]-9H-fluorene-9-carboxylic acid-4-fluoro-benzylamide]: 153 °C.

`COCCCNC(=O)C1(CCCCN2CCN(c3ccc4ccccc4n3)CC2)c2ccccc2-c2ccccc21` [Example 93, 9-[4-(4-quinolin-2-yl-piperazin-1-yl)-butyl]-9H-fluorene-9-carboxylic acid-(3-methoxy-propyl)-amide] showed a melting point of 87 °C. Next, `O=C(NCC(F)(F)F)C1(CCCCN2CCN(c3cc(-c4ccccc4)c4ccccc4n3)CC2)c2ccccc2-c2ccccc21` [Example 25, 9-{4-[4-(4-phenyl-quinolin-2-yl)-piperazin-1-yl]-butyl}-9H-fluorene-9-carboxylic acid-(2,2,2-trifluoro-ethyl)-amide]: 105 °C. With `O=C(NCCc1ccccc1)C1(CCCCN2CCN(c3ccc4ccccc4n3)CC2)c2ccccc2-c2ccccc21` [Example 92, 9-[4-(4-quinolin-2-yl-piperazin-1-yl)-butyl]-9H-fluorene-9-carboxylic acid-(phenethyl)-amide], the melting point fell in the range of 55 to 57 °C.
